Laboratory results reported in US20070219117A1, “BIDENTATE MOTIF AND METHODS OF USE” (MEDVET SCIENCE PTY LTD, priority 2003, published 2007).
“Also recorded” adds a separate entry of the source.

How the values were obtained:
Format in all cases: cell-based
[1] = system: primary human neutrophils; test: Survival of primary human neutrophils, annexin V-FITC; settings: for effect on neutrophil survival in response to low concentrations of GM-CSF: 15 μM inhibitor; for cell survival: neutrophils
Description: Survival was determined by annexin V-FITC (Roche) staining essentially as previously described (Guthridge et al., 2000). […] After 48 hours, cells were stained with the 4H1 anti-GMRα mAb and annexin V-FITC. The proportion of GMRα-positive cells remaining viable (annexin V-FITC-negative) after culture was analysed by flow cytometry. […] In some experiments forskolin ICN Biochemicals), H89 (Seikaguku Corporation), LY294002 (Cayman Chemical Company), genestein (Sigma) or AG490 (Biomol) were used.

[2] = system: TF-1 cells; test: TF-1 cell survival, annexin V-FITC flow cytometry; settings: data not shown
Description: Survival was determined by annexin V-FITC (Roche) staining essentially as previously described (Guthridge et al., 2000). Briefly, transduced fetal liver cells were plated in IMDM and either 0.1% or 10% FCS containing either no GM-CSF, […] hGM-CSF or a positive control cytokine cocktail containing 50 ng/ml IL-6 (Peprotech), 100 ng/ml mouse SCF and 10 ng/ml G-CSF (Amgen). After 48 hours, cells were stained with the 4H1 anti-GMRα mAb and annexin V-FITC. The proportion of GMRα-positive cells remaining viable (annexin V-FITC-negative) after culture was analysed by flow cytometry. The regulation of TF-1 cell survival by GM-CSF was determined as previously described (Guthridge et al., 2000; Guthridge et al., 2004). To examine the survival of primary human neutrophils in response to GM-CSF, we modified our previously described assay (Begley et al., 1986). Neutrophils purified by centrifugation through Lymphoprep (Axis-Shield) were plated at 1.5×10^5 cells/ml in IMDM/0.5% FCS containing different concentrations of GM-CSF and cell survival was examined as previously described (Guthridge et al., 2000). In some experiments forskolin ICN Biochemicals), H89 (Seikaguku Corporation), LY294002 (Cayman Chemical Company), genestein (Sigma) or AG490 (Biomol) were used.

[3] = system: Akt; test: Akt Ser473 phosphorylation immunoblot in CTL-EN cells expressing the wt GM-CSF receptor; settings: 1 pM GM-CSF, compared with 1000 pM GM-CSF
Description: (§1) Cells were factor-deprived in RPMI containing 0.1% FCS for 24 h and then stimulated for 10 min with different GM-CSF concentrations before lysis as previously described (Guthridge et al., 2000). Human mononuclear cells from normal donors and from leukemic patients were separated from peripheral blood by centrifugation over ficoll. The βc subunit was immunoprecipitated using a mixture of 1C1 and 8E4 anti-βc mAb (1C1/8E4)(1 μg each/immunoprecipitation) and immunoprecipitates subjected to SDS-PAGE and immunoblot analysis. Affinity purified anti-14-3-3 pAb (EB1) were used at a dilution of 1:5000 (Guthridge et al., 2000). Anti-MAP2 mAb (MK12)(Pharmingen) was used at a dilution of 1:5000. Anti-p85 pAb antibodies (UBI) were used at a dilution of 1:1000. The 4G10 anti-phosphotyrosine mAb (UBI) was used at 1 pg/ml. The anti-active-ERK pAb (Promega) was used at 50 ng/ml, the anti-phosphorylated STAT5 mAb (Zymed) was used at 2 μg/ml, the anti-phospho-JAK2 pAb (Affinity Bioreagents) was used at 0.5 μg/ml. Affinity purified anti-βc phospho-577 pAb (Guthridge et al., 2004) were used at a dilution of 1:1000. Antibodies to phospho-Ser585 of βc (Guthridge et al., 2000) were used at a dilution of 1:5000. The phosphorylation of Akt in response to GM-CSF was examined in CTL-EN cells electroporated with the pCMV-AKT-HA plasmid (30 μg DNA/1×10^7 cells)(kindly provided by P. N. Tsichlis). […]

[4] = system: JAK2, STAT5 and ERK; test: Immunoblot of TF-1 lysates for phospho-JAK2, phospho-STAT5 and active ERK; settings: also βc tyrosine phosphorylation and p85 recruitment
Description: as §1

[5] = system: PKA; test: Protein kinase A (PKA) kinase assay in TF-1 cells; settings: 1 pM GM-CSF, up to 30 min, compared with 1000 pM
Description: TF-1 cells were factor-deprived overnight in DMEM containing 0.5% FCS. Cells (4×10^6) were stimulated with GM-CSF or forskolin before lysis in 1 ml 20 mM Tris HCl pH 7.4, 0.5 mM EDTA, 0.5 mM EGTA, 10 mM 2-mercaptoethanol, 5% Glycerol and 2 mM NaF by 20 strokes of a dounce homogenizer on ice. The lysate was centrifuged at 170 g for 15 min and the supernatant then centrifuged at 100,000 g for 1 h at 4° C. The resulting pellet was resuspended in NP40 lysis buffer with a protease/phosphatase inhibitor cocktail (Guthridge et al., 2000; Guthridge et al., 2004). Lysate (2 μl) was then tested for PKA activity by adding 40 μM kemptide, 0.25 μCi [y-^32P] ATP, 1 μM cold ATP, in a buffer containing 10 mM MgCl2, 10 mM Tris HCl pH7.4, 1 mM β-glycerol phosphate and 1 mM DTT. Reactions (20 μl) were incubated at 30° C. for 30 min and aliquots were examined for 32P-labelled kemptide on p81 phosphocellulose filters (Whatman) and liquid scintillation counting (Guthridge et al., 2000).

[6] = system: βc subunit of the GM-CSF receptor (Ser585, Tyr577); test: βc immunoprecipitation and phospho-specific immunoblot in TF-1 cells after GM-CSF titration
Description: Cells were factor-deprived in RPMI containing 0.1% FCS for 24 h and then stimulated for 10 min with different GM-CSF concentrations before lysis as previously described (Guthridge et al., 2000). Human mononuclear cells from normal donors and from leukemic patients were separated from peripheral blood by centrifugation over ficoll. The βc subunit was immunoprecipitated using a mixture of 1C1 and 8E4 anti-βc mAb (1C1/8E4)(1 μg each/immunoprecipitation) and immunoprecipitates subjected to SDS-PAGE and immunoblot analysis. Affinity purified anti-14-3-3 pAb (EB1) were used at a dilution of 1:5000 (Guthridge et al., 2000). Anti-MAP2 mAb (MK12)(Pharmingen) was used at a dilution of 1:5000. Anti-p85 pAb antibodies (UBI) were used at a dilution of 1:1000. The 4G10 anti-phosphotyrosine mAb (UBI) was used at 1 pg/ml. The anti-active-ERK pAb (Promega) was used at 50 ng/ml, the anti-phosphorylated STAT5 mAb (Zymed) was used at 2 μg/ml, the anti-phospho-JAK2 pAb (Affinity Bioreagents) was used at 0.5 μg/ml. Affinity purified anti-βc phospho-577 pAb (Guthridge et al., 2004) were used at a dilution of 1:1000. Antibodies to phospho-Ser585 of βc (Guthridge et al., 2000) were used at a dilution of 1:5000. The phosphorylation of Akt in response to GM-CSF was examined in CTL-EN cells electroporated with the pCMV-AKT-HA plasmid (30 μg DNA/1×10^7 cells)(kindly provided by P. N. Tsichlis). 24 h after electroporation the cells were factor-deprived overnight in DMEM/0.5% FCS. Cells were then stimulated (10^7 cells/time point) with either 1 pM or 1000 pM GM-CSF and lysed in RIPA buffer (150 mM NaCl, 1.0% NP40, 0.5% Deoxycholate, 0.1% SDS, 50 mM Tris pH8.0) and subjected to SDS-PAGE and immunoblot analysis with the anti-phospho-Akt Ser473 pAb (1:1000)(Cell Signalling Technologies).

N#C/C(=C/c1ccc(O)c(O)c1)C(=O)NCc1ccccc1 [AG490]
effect on neutrophil survival in response to low concentrations of GM-CSF [1]: Neither inhibitor was able to block; also recorded: survival was increased

O=S(=O)(NCCNC/C=C/c1ccc(Br)cc1)c1cccc2cnccc12 [H89]
effect on ability of GM-CSF to promote survival in TF-1 cells [2]: reduced | effect on GM-CSF-promoted survival of neutrophils ([1]; neutrophils stimulated with GM-CSF): reduced

C=C[C@@]1(C)CC(=O)[C@]2(O)[C@@]3(C)[C@@H](O)CCC(C)(C)[C@@H]3[C@H](O)[C@H](OC(C)=O)[C@@]2(C)O1 [forskolin]
cell survival ([1]; forskolin in the absence of GM-CSF (from 27% without)): 46%

O=c1c(-c2ccc(O)cc2)coc2cc(O)cc(O)c12 [genestein]
effect on neutrophil survival in response to low concentrations of GM-CSF [1]: Neither inhibitor was able to block

GM-CSF: cytokine; human GM-CSF used to stimulate cells via the GM-CSF receptor
cell survival ([1]; 0.1 pM GM-CSF): 90% | cell survival ([1]; 1 pM GM-CSF): 83% | phosphorylation of Ser473 of Akt [3]: the magnitude was reduced and the kinetics were delayed | GM-CSF concentration resulting in phosphorylation of JAK2, STAT5 and ERK [4]: > 10 pM | PKA activity [5]: higher and more sustained | GM-CSF concentration at which Tyr577 phosphorylation was detectable ([6]; TF-1 cells, 10 min stimulation): greater than 10 pM | GM-CSF concentration at which phosphorylation of Ser585 decreased ([6]; TF-1 cells, 10 min stimulation): 10 pM | GM-CSF concentration at which phosphorylation of Ser585 increased ([6]; TF-1 cells, 10 min stimulation): < 3 pM | GM-CSF concentration at which phosphorylation of Ser585 was virtually absent ([6]; TF-1 cells, 10 min stimulation): over 100 pM | GM-CSF concentration that promotes Ser585 phosphorylation, 14-3-3 binding and p85 recruitment ([6]; low concentration signal): < 3 pM
